# Source: US6750208B1, “Medicine for treating apoptosis dysfunction containing oligosaccharides” (Laboratoires Goemar S.A., priority 1998, dated 2004)
# System: cells as in Example 1, FasAb-induced apoptosis
# Experiment: effect of I9 fractions on low dose FasAb-induced apoptosis (Example 3)
# Type: cell-based
# Conditions: 0.2 mg/ml simultaneously with 100 ng/ml FasAb of Euromedex origin; 24 hours of incubation
# Experimental: The effect induced by various constituents of this mixture, in particular of fractions DP 2, DP 3, DP 4, DP 5 and DP 7, was tested.
# The polymer constituting the raw material of I9 was also tested, as was the product named KIK (hexasaccharide of type kappa-iota-kappa).
# For these experiments, the procedure was carried out as in Example 1, simultaneously introducing, on the one hand, 0.2 mg/ml of each of the abovementioned fractions of I9 and, on the other hand, 100 ng/ml of FasAb of Euromedex origin.
# After 24 hours of incubation, the findings summarized below were made.
row,Substance,stimulatory effect on FasAb-induced apoptosis
1,iota-carrageenan,active
2,iota-neocarrahexaose [DP 3],inactive
3,oligo-iota-carrageenan [DP 7],50%
4,iota-neocarraletraose [DP 2],inactive
5,iota-neocarradecaose [DP 5],inactive
6,iota-neocarraoctaose [DP 4],inactive
